The results in this text go back to patent publication US8084457B2, “Pharmaceutically active 4,6-disubstituted aminopyrimidine derivatives as modulators of protein kinases” (Lead Discovery Center GmbH, priority 2003, dated 2011).

Holding throughout (assay type): biochemical
The target of assay [1] is T1, CDK9/Cyclin T1 (Homo sapiens, UniProt P50750).
T1 construct: made in house; host or cells: HEK293 cells, recombinant adenovirus
Description: Kinase assay using CDK9/Cyclin T1. As to conditions: read-out: CDK9 (activity range). The gist of the method:
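Recombinant CDK9/Cyclin T1 produced via adenoviral expression from gateway-cloned cDNAs. Kinase reaction run essentially per a published protocol.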

The target of assay [2] is T2, CDK2/CyclinA (Homo sapiens, UniProt P24941).
T2 construct: purchased Proqinase
As to the kind of experiment: Kinase assay determining CDK2/CyclinA activity. As to conditions: read-out: CDK2 (activity range). On the procedure:
Kinase Assays Determining CDK2/CyclinA and CDK5/p35 Activity:
Kinase assays were performed as described by the manufacturers recommendations (Proqinase for CDK2/CyclinA and Upsate for CDK5/p35).

Assay [3] addresses CDK4 (Homo sapiens, UniProt P11802). As to the kind of experiment: Kinase assay, CDK4 activity range (Table 2).

Chain of CDK4 (P11802 whole entry, species assumed): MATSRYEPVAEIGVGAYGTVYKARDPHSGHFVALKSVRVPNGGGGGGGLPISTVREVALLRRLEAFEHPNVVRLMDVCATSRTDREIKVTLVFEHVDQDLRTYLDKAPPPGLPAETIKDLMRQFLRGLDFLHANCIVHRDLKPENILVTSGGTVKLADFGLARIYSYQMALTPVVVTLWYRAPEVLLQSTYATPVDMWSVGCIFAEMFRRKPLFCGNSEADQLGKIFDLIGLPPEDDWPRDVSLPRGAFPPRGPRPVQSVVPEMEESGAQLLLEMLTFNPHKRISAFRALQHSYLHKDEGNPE
Chain of CDK4 (P24385 whole entry partner, species assumed): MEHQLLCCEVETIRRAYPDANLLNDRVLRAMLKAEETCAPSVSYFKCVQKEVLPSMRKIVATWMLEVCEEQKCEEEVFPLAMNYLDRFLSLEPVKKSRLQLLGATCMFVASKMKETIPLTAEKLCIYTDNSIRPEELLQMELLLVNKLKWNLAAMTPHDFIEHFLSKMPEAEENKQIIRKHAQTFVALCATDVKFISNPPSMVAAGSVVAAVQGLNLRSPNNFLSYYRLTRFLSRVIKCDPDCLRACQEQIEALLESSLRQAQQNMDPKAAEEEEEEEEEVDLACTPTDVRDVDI
T1 sequence (P50750 whole entry): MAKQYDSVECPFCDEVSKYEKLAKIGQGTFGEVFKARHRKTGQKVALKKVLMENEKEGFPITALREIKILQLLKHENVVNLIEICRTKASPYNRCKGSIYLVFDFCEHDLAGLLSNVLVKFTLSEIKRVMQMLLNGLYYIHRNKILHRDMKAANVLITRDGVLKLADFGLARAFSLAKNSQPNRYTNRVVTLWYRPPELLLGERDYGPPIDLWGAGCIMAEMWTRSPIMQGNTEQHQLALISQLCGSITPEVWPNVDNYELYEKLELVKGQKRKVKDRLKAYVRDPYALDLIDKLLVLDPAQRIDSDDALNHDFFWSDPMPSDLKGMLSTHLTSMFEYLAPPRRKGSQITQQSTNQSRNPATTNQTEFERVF
T1 sequence (O60563 whole entry partner): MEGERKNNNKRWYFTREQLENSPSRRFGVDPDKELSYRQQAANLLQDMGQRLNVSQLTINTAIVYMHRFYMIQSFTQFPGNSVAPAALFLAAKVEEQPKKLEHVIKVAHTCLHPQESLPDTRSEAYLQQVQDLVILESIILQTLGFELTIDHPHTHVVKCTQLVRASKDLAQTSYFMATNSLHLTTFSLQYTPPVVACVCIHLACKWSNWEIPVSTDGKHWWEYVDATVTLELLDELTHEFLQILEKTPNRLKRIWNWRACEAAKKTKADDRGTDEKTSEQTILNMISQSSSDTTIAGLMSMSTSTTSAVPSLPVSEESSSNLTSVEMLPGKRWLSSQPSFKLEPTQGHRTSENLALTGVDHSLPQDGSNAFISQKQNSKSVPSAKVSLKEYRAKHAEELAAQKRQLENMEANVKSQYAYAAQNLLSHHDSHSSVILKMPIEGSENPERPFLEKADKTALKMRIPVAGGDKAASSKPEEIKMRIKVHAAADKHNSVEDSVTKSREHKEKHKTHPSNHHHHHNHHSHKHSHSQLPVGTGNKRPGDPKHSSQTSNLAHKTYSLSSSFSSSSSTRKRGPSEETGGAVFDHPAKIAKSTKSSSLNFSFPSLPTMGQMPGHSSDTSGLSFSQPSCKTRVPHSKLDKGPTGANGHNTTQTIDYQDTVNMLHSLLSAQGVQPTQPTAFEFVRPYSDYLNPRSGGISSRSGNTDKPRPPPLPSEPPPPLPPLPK

For `COc1ccccc1-c1cc(Nc2ccc(C(=O)N[C@@H]3CCCC[C@H]3N)cc2)ncn1` (racemic) [(83)], the IC50 was in the range of 1 to 1000 nM in assay [1], 1000 to 10000 nM in assay [2] and 1000 to 10000 nM in assay [3].

On to `CC(C)Oc1ccccc1-c1cc(Nc2ccc(C(=O)N[C@@H]3CCCC[C@H]3N)cc2)ncn1` (racemic) [(199)], for which the IC50 in assay [1] was 1 to 1000 nM; in assay [2] it was 1000 to 10000 nM; in assay [3] it was 1000 to 10000 nM.

Turning to `COc1ccccc1-c1cc(Nc2ccc(N3CCCC3=O)cc2)ncn1` [(9)], the IC50 in assay [1], in assay [2] and in assay [3] was 1 to 1000 nM each time.

In the case of `COc1ccccc1-c1cc(Nc2ccc(NC(C)=O)cc2)ncn1` [(10)], the IC50 lay within 1 to 1000 nM in assay [1], 1 to 1000 nM in assay [2] and 1000 to 10000 nM in assay [3].

Turning to `COc1ccccc1-c1cc(Nc2ccc(C(N)=O)cc2)ncn1` [(14)], the IC50 in assay [1] fell in the range of 1 to 1000 nM; in assay [2], 1 to 1000 nM; in assay [3], 10000 to 250000 nM.

As for `COc1ccccc1-c1cc(Nc2ccc(N)cc2)ncn1` [(22)], the values for the IC50 in assay [1], in assay [2] and in assay [3] were 1 to 1000 nM, 1 to 1000 nM and 1000 to 10000 nM, respectively.

For the compound `COc1ccccc1-c1cc(Nc2ccc(NC(=O)[C@@H]3CCCCN3)cc2)ncn1` [(30)], the IC50 is 1 to 1000 nM in assay [1], 1000 to 10000 nM in assay [2] and 1 to 1000 nM in assay [3].

Take `COc1ccccc1-c1cc(Nc2ccc(NS(C)(=O)=O)cc2)ncn1` [(33)]: the IC50 in assay [1] was 1 to 1000 nM; in assay [2] it was 1 to 1000 nM; in assay [3] it was 1000 to 10000 nM.

`COc1ccccc1-c1cc(Nc2ccc(NC(=O)CN(C)C)cc2)ncn1` [(46)]: the results for the IC50 in assay [1], in assay [2] and in assay [3] were 1 to 1000 nM, 1000 to 10000 nM and 1000 to 10000 nM, respectively.

Regarding `COc1ccccc1-c1cc(Nc2ccc(NC(=O)CC3CCCCN3)cc2)ncn1` (stereo not drawn) [(59)], the IC50 in assay [1] is 1 to 1000 nM; in assay [2], 1000 to 10000 nM; in assay [3], 1 to 1000 nM.

`CCN(CC)CCC(=O)Nc1ccc(Nc2cc(-c3ccccc3OC)ncn2)cc1` [(64)]: the IC50 in assay [1] was in the range of 1 to 1000 nM; in assay [2], 1000 to 10000 nM; in assay [3] it was 1000 to 10000 nM.

As to `COc1ccccc1-c1cc(Nc2ccc(NC(=O)[C@@H]3Cc4ccccc4CN3)cc2)ncn1` [(65)], the results for the IC50 in assay [1], in assay [2] and in assay [3] were 1 to 1000 nM, 1000 to 10000 nM and 10000 to 250000 nM, respectively.

`COc1ccccc1-c1cc(Nc2ccc(NC(=O)C3(N)CCCCC3)cc2)ncn1` [(66)]: the IC50 in assay [1] is 1 to 1000 nM; in assay [2], 1000 to 10000 nM; in assay [3], 1000 to 10000 nM.

With `COc1ccccc1-c1cc(Nc2ccc(NC(=O)C3(N)CCCC3)cc2)ncn1` [(68)], the IC50 in assay [1] was in the range of 1 to 1000 nM; in assay [2], 1000 to 10000 nM; in assay [3] it was 1000 to 10000 nM.

Consider `COc1ccccc1-c1cc(Nc2ccc(NC(=O)[C@H]3CCCCN3)cc2)ncn1` [(69)], for which the values for the IC50 in assay [1], in assay [2] and in assay [3] were 1 to 1000 nM, 1000 to 10000 nM and 1 to 1000 nM, respectively.

Take `COc1ccccc1-c1cc(Nc2ccc(NC(=O)[C@@H](N)c3ccccc3)cc2)ncn1` [(81)]: the IC50 was in the range of 1 to 1000 nM in assay [1], 1000 to 10000 nM in assay [2] and 1000 to 10000 nM in assay [3].

In the case of `CN[C@H](C(=O)Nc1ccc(Nc2cc(-c3ccccc3OC)ncn2)cc1)c1ccccc1` [(82)], the IC50 in assay [1] was in the range of 1 to 1000 nM; in assay [2], 1000 to 10000 nM; in assay [3], 1000 to 10000 nM.

In the case of `COc1ccccc1-c1cc(Nc2ccc(C(=O)NC3CCCNC3)cc2)ncn1` (stereo not drawn) [(86)], the IC50 in assay [1], in assay [2] and in assay [3] was 1 to 1000 nM throughout.

On to `COc1ccccc1-c1cc(Nc2ccc(NC(=O)C3CCCN(C)C3)cc2)ncn1` (stereo not drawn) [(87)], for which the IC50 in assay [1] was 1 to 1000 nM; in assay [2] it was 1000 to 10000 nM; in assay [3] it was 1000 to 10000 nM.

For `COc1ccccc1-c1cc(Nc2ccc(NC(=O)C3CCN(C)CC3)cc2)ncn1` [(89)], the IC50 in assay [1] was in the range of 1 to 1000 nM; in assay [2], 1000 to 10000 nM; in assay [3], 1000 to 10000 nM.

`COc1ccccc1-c1cc(Nc2ccc(NC(=O)[C@H]3CCCN3)cc2)ncn1` [(91)]: the figures for the IC50 in assay [1], in assay [2] and in assay [3] were 1 to 1000 nM, 1000 to 10000 nM and 1000 to 10000 nM, respectively.

For `NC(=O)c1ccc(Nc2cc(-c3ccccc3OCc3ccccc3)ncn2)cc1` [(95)], the IC50 in assay [1] is 1 to 1000 nM; in assay [2] it was 1 to 1000 nM; in assay [3], 1000 to 10000 nM.

On to `COc1ccccc1-c1cc(Nc2ccc(NC(=O)CCN)cc2)ncn1` [(102)], for which the IC50 lay in the range of 1 to 1000 nM in assay [1], 1000 to 10000 nM in assay [2] and 1 to 1000 nM in assay [3].

Regarding `NCCCOc1ccccc1-c1cc(Nc2ccc(NC(=O)c3ccc(N)cc3)cc2)ncn1` [(103)], the IC50 in assay [1] lay within 1 to 1000 nM; in assay [2], 1000 to 10000 nM; in assay [3], 10000 to 250000 nM.

As for `CC(=O)Nc1cccc(-c2cc(Nc3ccc(C)c(NS(C)(=O)=O)c3)ncn2)c1` [(104)], the IC50 in assay [1] was 1 to 1000 nM; in assay [2] it was 1000 to 10000 nM; in assay [3] it was 10000 to 250000 nM.

In the case of `Cc1ccc(Nc2cc(-c3cccc(O)c3)ncn2)cc1NS(C)(=O)=O` [(105)], the IC50 in assay [1] was 1 to 1000 nM; in assay [2], 1 to 1000 nM; in assay [3], 10000 to 250000 nM.

`Cc1ccc(Nc2cc(-c3ccccc3)ncn2)cc1NS(C)(=O)=O` [(106)]: the IC50 in assay [1] was in the range of 1 to 1000 nM; in assay [2], 1 to 1000 nM; in assay [3], 10000 to 250000 nM.

Take `Cc1ccc(Nc2cc(-c3cccc(C(F)(F)F)c3)ncn2)cc1NS(C)(=O)=O` [(107)]: the IC50 in assay [1], in assay [2] and in assay [3] was 10000 to 250000 nM throughout.

In the case of `CNC(C)(C)C(=O)Nc1ccc(Nc2cc(-c3ccccc3OC)ncn2)cc1` [(118)], the values for the IC50 in assay [1], in assay [2] and in assay [3] were 1 to 1000 nM, 1000 to 10000 nM and 1 to 1000 nM, respectively.

For `COc1ccccc1-c1cc(Nc2cccc(N)c2)ncn1` [(124)], the values for the IC50 in assay [1], in assay [2] and in assay [3] were 1 to 1000 nM, 1 to 1000 nM and 1000 to 10000 nM, respectively.

On to `COc1ccccc1-c1cc(Nc2cccc(NC(=O)[C@@H]3CCCCN3)c2)ncn1` [(128)], for which the IC50 fell in the range of 1 to 1000 nM in assay [1], 1 to 1000 nM in assay [2] and 1000 to 10000 nM in assay [3].

`CC[C@H](C)[C@H](N)C(=O)Nc1ccc(Nc2cc(-c3ccccc3OC)ncn2)cc1` [(140)]: the values for the IC50 in assay [1], in assay [2] and in assay [3] were 1 to 1000 nM, 1000 to 10000 nM and 1000 to 10000 nM, respectively.

For the compound `COc1ccccc1-c1cc(Nc2ccc(NC(=O)[C@@H](N)C(C)C)cc2)ncn1` [(143)], the results for the IC50 in assay [1], in assay [2] and in assay [3] were 1 to 1000 nM, 1000 to 10000 nM and 1000 to 10000 nM, respectively.

As for `COc1ccccc1-c1cc(Nc2cccc(S(N)(=O)=O)c2)ncn1` [(150)], the IC50 was in the range of 1 to 1000 nM in assay [1], 1 to 1000 nM in assay [2] and 10000 to 250000 nM in assay [3].

As to `COc1ncccc1-c1cc(Nc2ccc(NC(=O)[C@@H]3CCCCN3)cc2)ncn1` [(171)], the IC50 in assay [1] lay within 1 to 1000 nM; in assay [2], 1000 to 10000 nM; in assay [3] it was 1000 to 10000 nM.

Regarding `COc1cccc(-c2cc(Nc3ccc(NC(=O)[C@@H]4CCCCN4)cc3)ncn2)c1OC` [(186)], the IC50 in assay [1] is 1000 to 10000 nM; in assay [2] it was 10000 to 250000 nM; in assay [3], 1000 to 10000 nM.

For the compound `COc1ccc(-c2cc(Nc3ccc(NC(=O)[C@@H]4CCCCN4)cc3)ncn2)c(OC)c1` [(187)], the IC50 fell in the range of 1 to 1000 nM in assay [1], 1000 to 10000 nM in assay [2] and 1 to 1000 nM in assay [3].

For `CC(C)Oc1ccccc1-c1cc(Nc2ccc(NC(=O)[C@@H]3CCCCN3)cc2)ncn1` [(188)], the results for the IC50 in assay [1], in assay [2] and in assay [3] were 1 to 1000 nM, 1000 to 10000 nM and 1 to 1000 nM, respectively.

With `CSc1ccccc1-c1cc(Nc2ccc(NC(=O)[C@@H]3CCCCN3)cc2)ncn1` [(189)], the results for the IC50 in assay [1], in assay [2] and in assay [3] were 1 to 1000 nM, 1000 to 10000 nM and 1 to 1000 nM, respectively.

`NC1CCCCC1NC(=O)c1ccc(Nc2cc(-c3ccccc3OCc3ccccc3)ncn2)cc1` (stereo not drawn) [(198)]: the IC50 in assay [1], in assay [2] and in assay [3] was 1 to 1000 nM in each case.
